Measurements as given in ChEMBL document CHEMBL2203140, “Syntheses and structure-activity relationship studies of N-substituted-β-D-glucosaminides as selective cytotoxic agents” (Bioorg Med Chem Lett, 2012).

Assays:
Type in all cases: functional, cell-based
[1] = tested on: HT-1080; assay: Cytotoxicity against human HT1080 cells after 48 hrs by MTT assay; conditions: HT-1080, 48 h
[2] = tested on: HCT-116; assay: Cytotoxicity against human HCT116 cells after 48 hrs by MTT assay; conditions: HCT-116, 48 h
[3] = tested on: HepG2; assay: Cytotoxicity against human HepG2 cells after 48 hrs by MTT assay; conditions: HepG2, 48 h
[4] = tested on: A549; assay: Cytotoxicity against human A549 cells after 48 hrs by MTT assay; conditions: A549, 48 h
[5] = tested on: MCF7; assay: Cytotoxicity against human MCF7 cells after 48 hrs by MTT assay; conditions: MCF7, 48 h
[6] = tested on: HeLa; assay: Cytotoxicity against human HeLa cells after 48 hrs by MTT assay

| Compound | IC50 [1] [µM] | IC50 [2] [µM] | IC50 [3] [µM] | IC50 [4] [µM] | IC50 [5] [µM] | IC50 [6] [µM] |
| --- | --- | --- | --- | --- | --- | --- |
| CCCCCCCNC(=O)N[C@H]1[C@H](O[C@H]2CC[C@@]3(C)C(=CC[C@H]4[C@@H]5C[C@@H]6O[C@]7(CC[C@@H](C)CO7)[C@@H](C)[C@@H]6[C@@]5(C)CC[C@@H]43)C2)O[C@H](CO)[C@@H](O)[C@@H]1O | 43 | > 50 | > 50 | > 50 | > 50 | > 50 |
| O=c1[nH]cc(F)c(=O)[nH]1 [FLUOROURACIL] | 15.2 | 36.4 | 51.5 | – | 78.6 | 63.4 |
| C[C@@H]1CC[C@@]2(OC1)O[C@H]1C[C@H]3[C@@H]4CC=C5C[C@@H](O[C@@H]6O[C@H](CO)[C@@H](O)[C@H](O)[C@H]6NC(=S)N/N=C/c6cc(C(F)(F)F)cc(C(F)(F)F)c6)CC[C@]5(C)[C@H]4CC[C@]3(C)[C@H]1[C@@H]2C | > 50 | > 50 | > 50 | > 50 | > 50 | > 50 |
| C[C@@H]1CC[C@@]2(OC1)O[C@H]1C[C@H]3[C@@H]4CC=C5C[C@@H](O[C@@H]6O[C@H](CO)[C@@H](O)[C@H](O)[C@H]6NC(=O)/C=C/c6cccc(Br)c6)CC[C@]5(C)[C@H]4CC[C@]3(C)[C@H]1[C@@H]2C | > 50 | > 50 | > 50 | > 50 | > 50 | > 50 |
| C[C@@H]1CC[C@@]2(OC1)O[C@H]1C[C@H]3[C@@H]4CC=C5C[C@@H](O[C@@H]6O[C@H](CO)[C@@H](O)[C@H](O)[C@H]6NC(=O)NCc6ccc(F)cc6)CC[C@]5(C)[C@H]4CC[C@]3(C)[C@H]1[C@@H]2C | 42 | > 50 | > 50 | > 50 | > 50 | > 50 |
| C[C@@H]1CC[C@@]2(OC1)O[C@H]1C[C@H]3[C@@H]4CC=C5C[C@@H](O[C@@H]6O[C@H](CO)[C@@H](O)[C@H](O)[C@H]6NC(=O)NC6CC6)CC[C@]5(C)[C@H]4CC[C@]3(C)[C@H]1[C@@H]2C | > 50 | > 50 | > 50 | > 50 | > 50 | 43.5 |
| COc1ccc(CNC(=O)N[C@H]2[C@H](O[C@H]3CC[C@@]4(C)C(=CC[C@H]5[C@@H]6C[C@@H]7O[C@]8(CC[C@@H](C)CO8)[C@@H](C)[C@@H]7[C@@]6(C)CC[C@@H]54)C3)O[C@H](CO)[C@@H](O)[C@@H]2O)cc1 | > 50 | > 50 | > 50 | > 50 | > 50 | > 50 |
| COc1cccc(/C=C/C(=O)N[C@H]2[C@H](O[C@H]3CC[C@@]4(C)C(=CC[C@H]5[C@@H]6C[C@@H]7O[C@]8(CC[C@@H](C)CO8)[C@@H](C)[C@@H]7[C@@]6(C)CC[C@@H]54)C3)O[C@H](CO)[C@@H](O)[C@@H]2O)c1 | 26.6 | > 50 | > 50 | 26.9 | 24.1 | 27 |
| COc1cccc(/C=C/C(=O)N[C@H]2[C@H](O[C@H]3CC[C@@]4(C)C(=CC[C@H]5[C@@H]6C[C@@H]7O[C@]8(CC[C@@H](C)CO8)[C@@H](C)[C@@H]7[C@@]6(C)CC[C@@H]54)C3)O[C@H](CO)[C@@H](O)[C@@H]2O)c1OC | 21.2 | 47.4 | 45.6 | 43.4 | 44.4 | 36.2 |
| C[C@@H]1CC[C@@]2(OC1)O[C@H]1C[C@H]3[C@@H]4CC=C5C[C@@H](O[C@@H]6O[C@H](CO)[C@@H](O)[C@H](O)[C@H]6NC(=O)NCc6ccccc6)CC[C@]5(C)[C@H]4CC[C@]3(C)[C@H]1[C@@H]2C | > 50 | > 50 | > 50 | 28.5 | 23.9 | 27 |
| C[C@@H]1CC[C@@]2(OC1)O[C@H]1C[C@H]3[C@@H]4CC=C5C[C@@H](O[C@@H]6O[C@H](CO)[C@@H](O)[C@H](O)[C@H]6NC(=S)N/N=C/c6ccccc6)CC[C@]5(C)[C@H]4CC[C@]3(C)[C@H]1[C@@H]2C | > 50 | 40 | 29.5 | 49.7 | 48.2 | 36.2 |
| C[C@@H]1CC[C@@]2(OC1)O[C@H]1C[C@H]3[C@@H]4CC=C5C[C@@H](O[C@@H]6O[C@H](CO)[C@@H](O)[C@H](O)[C@H]6NC(=O)/C=C/c6ccccc6)CC[C@]5(C)[C@H]4CC[C@]3(C)[C@H]1[C@@H]2C | 29.8 | 39.1 | 36.3 | 41.8 | 16 | 12.8 |
| C[C@@H]1CC[C@@]2(OC1)O[C@H]1C[C@H]3[C@@H]4CC=C5C[C@@H](O[C@@H]6O[C@H](CO)[C@@H](O)[C@H](O)[C@H]6NC(=O)/C=C/c6ccc(F)cc6)CC[C@]5(C)[C@H]4CC[C@]3(C)[C@H]1[C@@H]2C | 34.9 | 35 | 39.8 | 33.8 | 21.2 | 26.9 |
| COc1ccccc1/C=C/C(=O)N[C@H]1[C@H](O[C@H]2CC[C@@]3(C)C(=CC[C@H]4[C@@H]5C[C@@H]6O[C@]7(CC[C@@H](C)CO7)[C@@H](C)[C@@H]6[C@@]5(C)CC[C@@H]43)C2)O[C@H](CO)[C@@H](O)[C@@H]1O | 4.3 | 38.9 | 29.5 | 23.1 | 23.1 | 27.5 |
| COc1cc(/C=C/C(=O)N[C@H]2[C@H](O[C@H]3CC[C@@]4(C)C(=CC[C@H]5[C@@H]6C[C@@H]7O[C@]8(CC[C@@H](C)CO8)[C@@H](C)[C@@H]7[C@@]6(C)CC[C@@H]54)C3)O[C@H](CO)[C@@H](O)[C@@H]2O)cc(OC)c1OC | > 50 | > 50 | > 50 | > 50 | > 50 | > 50 |
| COc1ccc(/C=C/C(=O)N[C@H]2[C@H](O[C@H]3CC[C@@]4(C)C(=CC[C@H]5[C@@H]6C[C@@H]7O[C@]8(CC[C@@H](C)CO8)[C@@H](C)[C@@H]7[C@@]6(C)CC[C@@H]54)C3)O[C@H](CO)[C@@H](O)[C@@H]2O)c(OC)c1 | 5.8 | 42.9 | 41.3 | 27.1 | 26.7 | 22.3 |
| COc1ccc(OC)c(/C=C/C(=O)N[C@H]2[C@H](O[C@H]3CC[C@@]4(C)C(=CC[C@H]5[C@@H]6C[C@@H]7O[C@]8(CC[C@@H](C)CO8)[C@@H](C)[C@@H]7[C@@]6(C)CC[C@@H]54)C3)O[C@H](CO)[C@@H](O)[C@@H]2O)c1 | > 50 | 35.6 | 31.7 | 47.8 | > 50 | 32.2 |
| CC(=O)N[C@H]1[C@H](O[C@H]2CC[C@@]3(C)C(=CC[C@H]4[C@@H]5C[C@@H]6O[C@]7(CC[C@@H](C)CO7)[C@@H](C)[C@@H]6[C@@]5(C)CC[C@@H]43)C2)O[C@H](CO)[C@@H](O)[C@@H]1O | > 50 | > 50 | > 50 | > 50 | – | – |
